We go through 1 molecule from patent US20240182526A1, “COMPOSITIONS AND METHODS FOR MODULTING INFLAMMATORY AND DEGENERATIVE DISORDER” (University of Southern California, priority 2021, published 2024).

For test [1], the system named is bearded dragon (Pogona vitticeps) amputated tail. The test is described as follows: Lizard tail healing model. The format is in vivo. As to conditions: 14 days post-amputation. The method, then: Lizard Tail Healing Model. Captive bred and raised bearded dragon lizards (Pogona vitticeps) were maintained at 25.5° C. with 65% humidity on a 12 hr light/12 hr dark schedule with UVB lamp (Zoo Med) treatment during daylight hours. Care and experimental use of lizards was conducted in accordance with Institutional Animal Care and Use Committee (IACUC). Lizard tails were amputated halfway along lengths with scalpels To systemically deplete macrophage populations, lizards received intraperitoneal (IP) injections of L-α-phoshatidylcholine/cholesterol liposomes containing clodronate (0.125 mg/g) as previously described (Londono et al. J Immunol Regen Med. 2020). Control animals were treated with liposomes containing PBS instead of clodronate. Lizards were treated with R805 drug via daily direct injection (1 pmol drug) into amputated tail stumps. Lizard tail samples were collected 14 days following original tail amputation. Collected tail samples were photographed using an Olympus SZX16 stereo microscope. Images were uploaded in ImageJ (NIH, Bethesda MD) and quantified using the measure command. For labeling of proliferating cell populations with 5-ethynyl-2′-deoxyuridine (EdU) (ThermoFisher Scientific), animals received IP injections of EdU (50 mg/kg) four hours prior to sample collection. Samples to be analyzed via histology were fixed overnight in 4% paraformaldehyde, decalcified for 3 weeks in 10% EDTA (pH 7.4), equilibrated to 30% sucrose, embedded in optimal cutting temperature compound (OCT, Tissue-Tek), crypsectioned at 16 μm thickness, mounted on glass slides, and stained with 4′,6-diamidino-2-phenylindole (DAPI). Samples were stained with Masson's trichrome (American Mastertech) according to the manufacturer's instructions or immunostained for CTSK (Abcam antibody ab19027, used at 1:1000). Images were captured with an Olympus CKX41 microscope outfitted with a Keyence BZ-X800 microscope, and the areas of EdU signal were quantified with ImageJ. Statistical analysis was performed using Prism 7 with one or two-way ANOVA with pairwise Tukey's multiple comparison test for data with multiple groups. A p-value of <0.05 was deemed to be statistically significant. All values and graphs are shown as mean±SD.

Test [2] concerns rat medial meniscal tear model. The test is described as follows: Rat medial meniscal tear model of osteoarthritis. The class given is in vivo. As to conditions: 6 weeks post-surgery. How it is done: Immunohistochemistry. Histological staining for was performed on wild type (WT) mice, F814 mice and all mice that underwent destabilization of the medial meniscus (DMM). Six weeks after surgery, mice were sacrificed and joints were fixed in 10% formalin, decalcified in 10% EDTA and embedded in paraffin. For rat model, 6 weeks after partial medial meniscectomy (PMM), rats were sacrificed and joints were fixed in 10% formalin, decalcified in 10% EDTA and embedded in paraffin. A total of three 8 μm thick sections were made at a 200 μm interval by coronal sectioning. For canine model, 4 and 16 weeks after medial meniscal release (MMR), dogs were sacrificed and joints were fixed in 10% formalin, decalcified in 10% EDTA and embedded in paraffin. No animals were excluded from analysis. A microtome (Leica) was used to cut 5-μm sections for joints. H&E staining was performed to assess morphology. Safranin O/Fast Green staining, immunohistochemistry for proteolytic enzymes and Osteoarthritis Research Society International (OARSI) scoring was performed as described (41, 42). For OARSI scoring, observers performing the analysis were blinded as whether the slides were from treated or control animals. The stained samples were visually observed using LSCM (Zeiss LSM710, Carl Zeiss, Germany).
Rat model of osteoarthritis. All experiments were conducted ethically. […]

The structures appear in SMILES notation. “Also recorded” adds a separate entry of the source.

`Cc1ccc(-c2csc(NC(=O)c3ccccn3)n2)cc1` [Peptide R805]: in test [1], the “CTSK+ macrophage recruitment to amputation site” value is “exhibited CTSK+ macrophage populations that extended into new tissue areas distal to amputation planes”; the “proliferating EdU+ cells” value was “significantly higher numbers of proliferating EdU+ wound epithelium and periosteal cells”. Moreover, the “tail tissue regrowth under macrophage depletion” value in test [1] (R805 co-treated with clodronate liposomes) was “co-treatment with clodronate liposomes inhibited R805-induced tissue regrowth”. Also, in test [1] (daily direct injection into amputated tail stump), the “tail tissue regeneration (gross morphology, Masson's trichrome)” value was “resulted in tissue regeneration as evidenced by blastema-like structures; also recorded: enhances lizard tail regeneration in a macrophage-dependent manner”. Besides, the “cartilage thickness and stiffness (indentation mapping)” value in test [2] (femoral condyle) was “maintained thickness and reduced stiffness in rat cartilage”. The “cartilage degeneration (Safranin O histology)” value in test [2] (weekly intra-articular injection) is “dramatically reduces the appearance of OA in rat and canine models; also recorded: prominent protective effects; also recorded: reduces cartilage degeneration”.
